In general, melting point refers to the temperature, or range, at which the solid turns liquid. `Cc1cccc(-c2nc(NC(=O)c3cccnc3)sc2-c2ccnc(NC3CCCC3)c2)c1` [Example Compound 42-4, N-[5-(2-cyclopentylamino-4-pyridyl)-4-(3-methylphenyl)-1,3-thiazol-2-yl]nicotinamide] showed a melting point of 215 to 216 °C.
The value for `O=C(Nc1nc(-c2ccc(F)cc2)c(-c2ccnc(NC3CCCCC3)c2)s1)c1cccnc1` [Example Compound 42-5, N-[5-(2-cyclohexylamino-4-pyridyl)-4-(4-fluorophenyl)-1,3-thiazol-2-yl]nicotinamide] was 136 to 138 °C.
As for `Cc1cc(-c2sc(NC(=O)c3cccnc3)nc2-c2ccc(F)cc2)ccn1` [Example Compound 42-7, N-[4-(4-fluorophenyl)-5-(2-methyl-4-pyridyl)-1,3-thiazol-2-yl]nicotinamide], the figure is 261 to 262 °C; as for `Cc1cccc(-c2nc(N(C)C(=O)c3cccnc3)sc2-c2ccnc(NC3CCCCC3)c2)c1` [Example Compound 42-8, N-[5-(2-cyclohexylamino-4-pyridyl)-4-(3-methylphenyl)-1,3-thiazol-2-yl]-N-methylnicotinamide], 147 to 148 °C.
As for `Cc1cccc(-c2nc(N(C)C(=O)c3cccnc3)sc2-c2ccnc(NC3CCCC3)c2)c1` [Example Compound 42-9, N-[5-(2-cyclopentylamino-4-pyridyl)-4-(3-methylphenyl)-1,3-thiazol-2-yl]N-methylnicotinamide], the figure is 148 °C.
`Cc1cccc(-c2nc(NC(=O)c3ccc(Cl)nc3)sc2-c2ccnc(C)c2)c1` [Example Compound 43, 6-chloro-N-[4-(3-methylphenyl)-5-(2-methyl-4-pyridyl)-1,3-thiazol-2-yl]nicotinamide] returned a melting point of 228 to 230 °C.
As for `Cc1cccc(-c2nc(NC(=O)c3ccc(Cl)nc3)sc2-c2ccnc(NC3CCCCC3)c2)c1` [Example Compound 44-1, 6-chloro-N-[5-(2-cyclohexylamino-4-pyridyl)-4-(3-methylphenyl)-1,3-thiazol-2-yl]nicotinamide], the figure is 255 to 256 °C; as for `Cc1cccc(-c2nc(NC(=O)c3ccc(Cl)nc3)sc2-c2ccnc(NC3CCCC3)c2)c1` [Example Compound 44-2, 6-chloro-N-[5-(2-cyclopentylamino-4-pyridyl)-4-(3-methylphenyl)-1,3-thiazol-2-yl]nicotinamide], 211 to 212 °C.
The value for `Cc1cc(C)cc(-c2nc(NC(=O)c3ccc(Cl)nc3)sc2-c2ccnc(C)c2)c1` [Example Compound 44-3, 6-chloro-N-[4-(3,5-dimethylphenyl)-5-(2-methyl-4-pyridyl)-1,3-thiazol-2-yl]nicotinamide] was 271 to 273 °C; that for `Cc1cccc(-c2nc(N(C)C(=O)c3ccc(Cl)nc3)sc2-c2ccnc(NC3CCCCC3)c2)c1` [Example Compound 44-4, 6-chloro-N-[5-(2-cyclohexylamino-4-pyridyl)-4-(3-methylphenyl)-1,3-thiazol-2-yl]-N-methylnicotinamide] was 171 to 172 °C.
The value for `Cc1cccc(-c2nc(NC(=O)c3ccc(C)nc3)sc2-c2ccnc(C)c2)c1` [Example Compound 45, 6-methyl-N-[4-(3-methylphenyl)-5-(2-methyl-4-pyridyl)-1,3-thiazol-2-yl]nicotinamide] was 233 to 234 °C; that for `Cc1cccc(-c2nc(NC(=O)c3ccc(C)nc3)sc2-c2ccnc(NC3CCCCC3)c2)c1` [Example Compound 46-1, N-[5-(2-cyclohexylamino-4-pyridyl)-4-(3-methylphenyl)-1,3-thiazol-2-yl]-6-methylnicotinamide] was 242 to 243 °C; that for `Cc1cccc(-c2nc(NC(=O)c3ccc(C)nc3)sc2-c2ccnc(NC3CCCC3)c2)c1` [Example Compound 46-2, N-[5-(2-cyclopentylamino-4-pyridyl)-4-(3-methylphenyl)-1,3-thiazol-2-yl]-6-methylnicotinamide] was 213 to 214 °C.
As for `Cc1cc(C)cc(-c2nc(NC(=O)c3ccc(C)nc3)sc2-c2ccnc(C)c2)c1` [Example Compound 46-3, N-[4-(3,5-dimethylphenyl)-5-(2-methyl-4-pyridyl)-1,3-thiazol-2-yl]-6-methylnicotinamide], the melting point was in the range of 252 to 253 °C.
The value for `Cc1cccc(-c2nc(N(C)C(=O)c3ccc(C)nc3)sc2-c2ccnc(NC3CCCC3)c2)c1` [Example Compound 46-4, N-[5-(2-cyclopentylamino-4-pyridyl)-4-(3-methylphenyl)-1,3-thiazol-2-yl]-N,6-dimethylnicotinamide] was 117 to 118 °C; that for `COc1ccc(C(=O)Nc2nc(-c3cccc(C)c3)c(-c3ccnc(C)c3)s2)cn1` [Example Compound 47, 6-methoxy-N-[4-(3-methylphenyl)-5-(2-methyl-4-pyridyl)-1,3-thiazol-2-yl]nicotinamide] was 224 to 226 °C; that for `COc1ccc(C(=O)Nc2nc(-c3cccc(C)c3)c(-c3ccnc(NC4CCCCC4)c3)s2)cn1` [Example Compound 48-1, N-[5-(2-cyclohexylamino-4-pyridyl)-4-(3-methylphenyl)-1,3-thiazol-2-yl]-6-methoxynicotinamide] was 191 to 192 °C.
As for `COc1ccc(C(=O)Nc2nc(-c3cccc(C)c3)c(-c3ccnc(NC4CCCC4)c3)s2)cn1` [Example Compound 48-2, N-[5-(2-cyclopentylamino-4-pyridyl)-4-(3-methylphenyl)-1,3-thiazol-2-yl]-6-methoxynicotinamide], the figure is 219 to 221 °C; as for `COc1ccc(C(=O)Nc2nc(-c3cc(C)cc(C)c3)c(-c3ccnc(C)c3)s2)cn1` [Example Compound 48-3, N-[4-(3,5-dimethylphenyl)-5-(2-methyl-4-pyridyl)-1,3-thiazol-2-yl]-6-methoxynicotinamide], 242 to 244 °C; as for `COc1ncccc1C(=O)Nc1nc(-c2cccc(C)c2)c(-c2ccnc(C)c2)s1` [Example Compound 49, 2-methoxy-N-[4-(3-methylphenyl)-5-(2-methyl-4-pyridyl)-1,3-thiazol-2-yl]nicotinamide], 169 to 170 °C.
On to `COc1ccc(-c2nc(NC(C)=O)sc2-c2ccnc(N)c2)cc1` [Example Compound 50, N-[5-(2-amino-4-pyridyl)-4-(4-methoxyphenyl)-1,3-thiazol-2-yl]acetamide], for which the melting point lay in the range of 247 to 250 °C.
Consider `COc1ccc(-c2nc(NC(=O)c3ccccc3)sc2-c2ccnc(N)c2)cc1` [Example Compound 51, N-[5-(2-amino-4-pyridyl)-4-(4-methoxyphenyl)-1,3-thiazol-2-yl]benzamide], for which the melting point was 219 to 222 °C.
Regarding `Cc1cc(C)cc(-c2nc(NC(=O)Nc3ccccc3)sc2-c2cc(C)nc(C)c2)c1` [Example Compound 53-1, N-[4-(3,5-dimethylphenyl)-5-(2,6-dimethyl-4-pyridyl)-1,3-thiazol-2-yl]-N′-phenylurea], the melting point fell in the range of 219 to 222 °C.
As to `Cc1cccc(-c2nc(NC(=O)Nc3ccccc3)sc2-c2ccnc(NC3CCCCC3)c2)c1` [Example Compound 53-2, N-[5-(2-cyclohexylamino-4-pyridyl)-4-(3-methylphenyl)-1,3-thiazol-2-yl]-N′-phenylurea], the melting point was in the range of 198 to 199 °C.

The record behind these values is US7495018B2, “Substituted 1,3-thiazole compounds, their production and use” (Takeda Pharmaceutical Company Limited, priority 2000, dated 2009).
